Measurements published in patent US10280170B2, “Substituted 4,5,6,7-tetrahydro-pyrazolo[1,5-a]pyrazine derivatives and 5,6,7,8-tetrahydro-4H-pyrazolo[1,5-a][1,4]diazepine derivatives as Ros1 inhibitors” (Janssen Pharmaceutica NV, priority 2014, dated 2019).
Read-outs that look alike come from different tables or passages of the source.

Assays:
[1] = test system: HCC78 non-small cell lung cancer cells; assay: HCC78 cell proliferation assay; assay type: cell-based; conditions: Homo sapiens, HCC78, 96 h, read-out: HCC-78 PROL pEC50 (converted)
How it was run: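 HCC78 NSCLC cells (~1000/well) in RPMI-1640 with 10% FBS were treated 24 h after seeding and exposed to compound for 4 days at 37 °C. Viability was read by MTT, with absorbance at 538 nm after DMSO/glycine solubilization.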

[2] = biological target: T1, Ros1 enzyme (Homo sapiens, UniProt P08922); assay: Ros1 enzymatic assay; assay type: biochemical; conditions: Ros1 enzymatic assay; read-out: ROS1 pIC50 (converted)
T1 construct: 0.5 μg/ml Ros1 enzyme
T1 sequence (P08922 28-2347): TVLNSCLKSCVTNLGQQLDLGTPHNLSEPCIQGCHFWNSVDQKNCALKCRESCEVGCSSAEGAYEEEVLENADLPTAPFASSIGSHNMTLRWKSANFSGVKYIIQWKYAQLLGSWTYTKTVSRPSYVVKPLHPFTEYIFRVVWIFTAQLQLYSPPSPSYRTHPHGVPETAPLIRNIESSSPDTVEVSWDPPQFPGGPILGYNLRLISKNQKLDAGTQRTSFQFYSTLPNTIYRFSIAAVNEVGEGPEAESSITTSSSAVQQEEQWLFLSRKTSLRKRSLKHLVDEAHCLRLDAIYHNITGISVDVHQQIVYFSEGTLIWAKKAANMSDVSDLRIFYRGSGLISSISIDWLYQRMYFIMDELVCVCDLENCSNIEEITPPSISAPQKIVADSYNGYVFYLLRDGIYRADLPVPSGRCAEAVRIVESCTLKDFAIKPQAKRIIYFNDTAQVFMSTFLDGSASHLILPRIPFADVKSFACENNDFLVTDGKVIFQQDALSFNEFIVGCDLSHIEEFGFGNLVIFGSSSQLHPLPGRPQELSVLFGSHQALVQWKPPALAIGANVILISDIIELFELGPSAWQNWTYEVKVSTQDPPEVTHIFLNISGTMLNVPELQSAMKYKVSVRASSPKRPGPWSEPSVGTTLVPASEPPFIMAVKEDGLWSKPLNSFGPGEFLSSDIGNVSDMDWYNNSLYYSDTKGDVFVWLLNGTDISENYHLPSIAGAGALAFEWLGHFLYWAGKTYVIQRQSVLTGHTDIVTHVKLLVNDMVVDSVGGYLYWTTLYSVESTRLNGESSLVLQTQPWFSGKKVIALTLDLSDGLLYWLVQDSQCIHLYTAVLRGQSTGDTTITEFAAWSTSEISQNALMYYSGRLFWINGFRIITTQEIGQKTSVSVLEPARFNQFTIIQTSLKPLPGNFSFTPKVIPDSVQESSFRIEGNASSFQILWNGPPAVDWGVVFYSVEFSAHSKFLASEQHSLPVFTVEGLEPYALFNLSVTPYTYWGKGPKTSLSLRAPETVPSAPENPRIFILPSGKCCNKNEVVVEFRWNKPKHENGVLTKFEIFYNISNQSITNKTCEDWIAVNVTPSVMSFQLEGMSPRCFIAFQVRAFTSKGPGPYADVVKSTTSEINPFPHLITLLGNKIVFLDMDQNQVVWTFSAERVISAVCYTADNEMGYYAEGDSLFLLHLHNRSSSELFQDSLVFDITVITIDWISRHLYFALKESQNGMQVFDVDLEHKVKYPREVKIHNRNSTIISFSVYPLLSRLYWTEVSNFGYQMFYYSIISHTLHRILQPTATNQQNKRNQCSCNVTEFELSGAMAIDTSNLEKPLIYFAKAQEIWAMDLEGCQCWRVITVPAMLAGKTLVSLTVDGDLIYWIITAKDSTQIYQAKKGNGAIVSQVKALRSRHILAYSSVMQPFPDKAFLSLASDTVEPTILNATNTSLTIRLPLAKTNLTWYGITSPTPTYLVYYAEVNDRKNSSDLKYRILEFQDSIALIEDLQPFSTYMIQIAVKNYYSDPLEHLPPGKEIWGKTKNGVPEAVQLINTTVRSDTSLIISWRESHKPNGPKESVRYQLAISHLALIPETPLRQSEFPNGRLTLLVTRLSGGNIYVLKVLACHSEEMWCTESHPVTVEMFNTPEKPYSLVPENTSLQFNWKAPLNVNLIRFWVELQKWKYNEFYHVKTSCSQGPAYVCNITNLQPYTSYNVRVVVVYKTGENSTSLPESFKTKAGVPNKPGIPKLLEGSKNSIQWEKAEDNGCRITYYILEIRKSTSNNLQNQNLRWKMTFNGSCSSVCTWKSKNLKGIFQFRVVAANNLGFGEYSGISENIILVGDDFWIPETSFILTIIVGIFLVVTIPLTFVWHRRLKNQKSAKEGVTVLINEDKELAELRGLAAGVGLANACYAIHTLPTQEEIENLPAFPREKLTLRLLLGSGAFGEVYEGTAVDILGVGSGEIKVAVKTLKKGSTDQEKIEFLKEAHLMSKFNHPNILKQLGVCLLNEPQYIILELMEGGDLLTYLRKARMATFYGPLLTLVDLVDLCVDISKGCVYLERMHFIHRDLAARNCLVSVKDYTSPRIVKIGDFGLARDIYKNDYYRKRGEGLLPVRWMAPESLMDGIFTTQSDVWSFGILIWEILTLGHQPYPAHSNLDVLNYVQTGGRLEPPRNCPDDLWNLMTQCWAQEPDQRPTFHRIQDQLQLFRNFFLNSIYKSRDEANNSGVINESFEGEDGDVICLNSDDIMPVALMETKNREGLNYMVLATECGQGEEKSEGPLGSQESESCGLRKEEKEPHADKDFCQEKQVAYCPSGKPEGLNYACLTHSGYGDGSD
How it was run: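 A radiometric assay mixed enzyme mix (0.5 μg/ml human Ros1) with substrate mix (6 μg/ml biotinylated IRS-Tide, 20 μM ATP plus [33P]ATP), both in 50 mM Tris-HCl pH 7.5, 10 mM MgCl2, 1 mM EGTA, 0.01% Tween-20. The reaction ran 120 min at room temperature, was stopped with EDTA plus streptavidin imaging beads, and was read by LEADseeker imaging.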

[3] = biological target: Ba/F3 cells containing Ros1 with a mutation at the gatekeeper residue (L2026M) (Homo sapiens, UniProt P08922, L2026M, cells depend on it, form not given); assay: Ba/F3-Ros1 cell proliferation assay, L2026M gatekeeper mutant; assay type: cell-based, murine; conditions: without IL-3
Chain of Ba/F3 cells containing Ros1 with a mutation at the gatekeeper residue (L2026M) (P08922 whole entry L2026M, form open): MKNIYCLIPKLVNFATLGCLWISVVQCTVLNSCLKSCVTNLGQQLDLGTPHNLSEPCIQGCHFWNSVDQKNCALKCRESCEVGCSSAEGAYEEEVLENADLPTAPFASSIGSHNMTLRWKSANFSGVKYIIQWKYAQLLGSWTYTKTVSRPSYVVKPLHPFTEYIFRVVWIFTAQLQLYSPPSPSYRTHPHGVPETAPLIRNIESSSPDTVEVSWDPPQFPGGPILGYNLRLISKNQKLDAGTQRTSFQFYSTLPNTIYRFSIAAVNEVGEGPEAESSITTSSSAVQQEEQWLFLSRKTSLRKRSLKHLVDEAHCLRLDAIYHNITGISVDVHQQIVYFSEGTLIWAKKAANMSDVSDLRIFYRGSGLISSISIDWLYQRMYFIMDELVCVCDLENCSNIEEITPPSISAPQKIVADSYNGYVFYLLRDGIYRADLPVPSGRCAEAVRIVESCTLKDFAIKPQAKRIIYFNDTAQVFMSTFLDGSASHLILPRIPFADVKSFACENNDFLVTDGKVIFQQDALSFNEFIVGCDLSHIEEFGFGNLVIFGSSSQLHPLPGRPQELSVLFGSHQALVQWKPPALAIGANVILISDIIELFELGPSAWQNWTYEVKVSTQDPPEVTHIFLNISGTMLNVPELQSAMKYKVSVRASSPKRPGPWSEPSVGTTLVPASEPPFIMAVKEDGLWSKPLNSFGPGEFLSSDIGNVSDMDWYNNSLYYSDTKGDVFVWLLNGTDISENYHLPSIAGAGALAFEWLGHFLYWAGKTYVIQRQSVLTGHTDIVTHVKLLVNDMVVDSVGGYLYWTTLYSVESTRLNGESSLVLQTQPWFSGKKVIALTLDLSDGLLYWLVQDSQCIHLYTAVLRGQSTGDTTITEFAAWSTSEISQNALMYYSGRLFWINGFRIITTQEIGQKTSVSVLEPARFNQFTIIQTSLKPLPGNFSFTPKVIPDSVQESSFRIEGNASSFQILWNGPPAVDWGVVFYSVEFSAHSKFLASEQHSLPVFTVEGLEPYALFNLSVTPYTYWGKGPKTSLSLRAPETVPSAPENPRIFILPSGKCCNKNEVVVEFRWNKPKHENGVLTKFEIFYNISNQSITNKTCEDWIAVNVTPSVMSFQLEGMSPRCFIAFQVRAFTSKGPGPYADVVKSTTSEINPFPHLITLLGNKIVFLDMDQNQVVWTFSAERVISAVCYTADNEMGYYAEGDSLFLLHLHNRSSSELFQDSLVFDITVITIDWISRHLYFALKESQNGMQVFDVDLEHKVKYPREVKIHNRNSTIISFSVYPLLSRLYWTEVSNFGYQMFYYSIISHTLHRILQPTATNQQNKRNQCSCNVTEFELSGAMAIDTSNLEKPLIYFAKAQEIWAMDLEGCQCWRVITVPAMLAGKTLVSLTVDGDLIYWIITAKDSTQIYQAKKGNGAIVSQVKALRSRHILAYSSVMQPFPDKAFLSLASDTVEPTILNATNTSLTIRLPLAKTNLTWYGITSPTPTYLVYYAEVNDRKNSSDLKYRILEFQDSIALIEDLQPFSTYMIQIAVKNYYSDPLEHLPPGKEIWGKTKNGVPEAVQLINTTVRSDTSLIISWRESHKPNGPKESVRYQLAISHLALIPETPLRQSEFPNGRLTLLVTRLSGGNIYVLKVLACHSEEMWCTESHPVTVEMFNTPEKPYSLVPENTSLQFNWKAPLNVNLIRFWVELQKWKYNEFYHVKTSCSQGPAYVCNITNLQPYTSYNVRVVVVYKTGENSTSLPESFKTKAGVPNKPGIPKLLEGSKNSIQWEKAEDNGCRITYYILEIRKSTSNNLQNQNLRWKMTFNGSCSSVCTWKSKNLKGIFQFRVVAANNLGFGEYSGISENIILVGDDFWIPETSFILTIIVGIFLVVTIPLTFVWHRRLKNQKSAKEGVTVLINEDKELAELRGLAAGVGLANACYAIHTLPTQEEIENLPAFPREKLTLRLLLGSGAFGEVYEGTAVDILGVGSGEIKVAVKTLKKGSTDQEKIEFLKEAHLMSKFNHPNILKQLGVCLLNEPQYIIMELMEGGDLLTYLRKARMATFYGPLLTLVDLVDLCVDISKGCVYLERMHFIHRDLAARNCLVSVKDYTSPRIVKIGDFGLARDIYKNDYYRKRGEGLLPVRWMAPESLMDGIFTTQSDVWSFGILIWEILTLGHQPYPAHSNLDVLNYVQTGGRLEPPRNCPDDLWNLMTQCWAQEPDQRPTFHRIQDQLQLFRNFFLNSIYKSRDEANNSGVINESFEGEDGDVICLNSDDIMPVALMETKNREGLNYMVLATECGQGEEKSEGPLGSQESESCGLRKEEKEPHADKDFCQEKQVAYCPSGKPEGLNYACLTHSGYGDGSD
How it was run: (§1)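 Ba/F3 cells expressing wild-type, L2026M or G2032R Ros1, 20000 cells/well in phenol red-free RPMI-1640 with 10% FBS, 2 mM L-glutamine, exposed to compound for 24 h at 37 °C, 5% CO2. Viability read by Alamar Blue (resazurin) fluorescence, ex 540/em 590 nm, after 4 h further incubation.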

[4] = biological target: T2, Ba/F3 cells containing Ros1 wild-type protein (Homo sapiens, UniProt P08922, cells depend on it, form not given); assay: Ba/F3-Ros1 cell proliferation assay, wild-type Ros1; assay type: cell-based, murine; conditions: without IL-3
T2 construct: The background only speaks of 'a number of different unrelated proteins' and names SLC34A2-ROS1 for HCC78 cells
T2 sequence (P08922 whole entry, stated change not applied): as the sequence (P08922 whole entry L2026M, form open) above, with M2026L counted along it
How it was run: as §1

[5] = test system: Ba/F3 cells containing Ros1 wild-type protein + IL-3; assay: Ba/F3-Ros1 cell proliferation counter-screen, wild-type protein in the presence of 10 ng/ml murine IL-3; assay type: cell-based; conditions: Mus musculus, BaF3, 24 h, read-out: BaF3-ROS1 + IL3 pIC50 (converted)
How it was run: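 Ba/F3 cells expressing wild-type Ros1, 20000 per well in RPMI-1640 with 10% FBS, cultured with compounds for 24 h at 37 °C with 10 ng/ml murine IL-3. Alamar Blue (resazurin) then added for 4 h. Fluorescence read at ex 540/em 590 nm.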

[6] = test system: Ros pY2274 in HCC78 cells; assay: pROS1 immunofluorescence assay in HCC78 cells; assay type: cell-based; conditions: Homo sapiens, read-out: HCC78-pRos1 pIC50 (converted)
Protocol: pROS1 Immunofluorescence Assay in HCC78 Cells
Approximately 20000 HCC78 non-small cell lung cancer cells in 180 μl of cell culture medium (RPMI-1640, 10% FBS, 2 mM L-Glutamine, 10 mM Hepes, 1 mM sodium pyruvate, 4.5 g/L glucose, 1.5 g/L sodium bicarbonate, 25 μg/ml Gentamycin) were seeded in each well of a 96-well polystyrene, poly-D-lysine coated plate and incubated at 37° C. and 5% CO2. After 24 hours, compounds were diluted in cell culture medium from which 20 μl was added to the wells containing cells and incubated for 4 hours at 37° C. and 5% CO2. The medium was removed and the cells were fixed by adding 100 μl of 5% formaldehyde in TBS (tris-buffered saline) (50 mM Tris.HCl, pH 7.4, 150 mM NaCl) and incubating for 15 minutes at room temperature. The formaldehyde was removed and replaced with methanol for 10 minutes at room temperature, after which the cells were washed 3 times with TBS containing 1% Triton X-100 and incubated in Odyssee (Li-Cor) blocking buffer for 1 hour at room temperature. The cells were then incubated with the primary rabbit antibody directed against Ros pY2274 (cst-3078) diluted 1/200 in blocking buffer for 24 hours at room temperature. The cells were washed three times with TBS containing 0.1% Triton X-100 and incubated with a secondary anti-rabbit antibody conjugated to the fluorescent dye Alexafluor 680 in blocking buffer for 1 hour at room temperature. The cells were washed three times with TBS containing 0.1% Triton X-100 and left to dry before measuring RFUs (Relative Fluorescence Units) at 700 nm using a fluorescence imager.
The same experiment was performed using total Ros1 antibody (sc-6347) diluted 1/1000 instead of Ros1 pY2274 antibody and an anti-goat antibody conjugated to IRDye800cw as a secondary antibody. RFUs were measured at […]. The signals from total Ros1 detection were used to normalize the Ros1 pY2274 values.

[7] = counter-screen, wild-type, 10 ng/ml murine IL-3
[8] = HCC78 cells, 4 hours, Ros pY2274 normalized to total Ros1

Row | EC50 ([1]; HCC78 cells, 4 days, MTT) [nM] | SMILES | EC50 [1] [nM] | IC50 [2] [nM] | Ba/F3 Ros1 L2026M (-IL-3) pIC50 [3] | BaF3-ROS1-IL3 pIC50 [4] | CC50 [5] [nM] | melting point [°C] | IC50 ([6]; HCC78, 4 h) [nM] | CC50 [5, 7] [nM] | IC50 [6, 8] [nM]
1 | – | O=C1NCCn2nc(-c3ccncc3)c(-c3ccc(OCc4ccc(C5CC5)nc4)cc3)c21 [Compound 3] | 794 | 79.4 | 7.0 | 7.3 | > 10000 | 276 | 79.4 | – | –
2 | – | O=C1NC2(CC2)Cn2nc(-c3ccncc3)c(-c3ccc(OCc4ccc(C5CC5)cc4)cc3)c21 [Compound 5] | 316 | 25.1 | 7.5 | 7.6 | > 10000 | 239 | 50.1 | – | –
3 | – | COc1cc(-c2c(-c3ccncc3)nn3c2C(=O)NCC3)cnc1OCc1ccc(C(C)C)cc1 [Compound 8] | 39.8 | 6.31 | 7.8 | 7.9 | > 10000 | 135 | 25.1 | – | –
4 | 2000 | CC(C)(O)c1ccc(COc2ccc(-c3c(-c4ccncc4)nn4c3C(=O)NCC4)cc2)cc1 [Compound 9] | – | 631 | 6.2 | 6.4 | – | 290 | – | > 10000 | 2510
5 | – | CC(C)c1ccc(COc2ccc(-c3c(-c4ccncc4)nn4c3C(=O)NCC4)nc2)cc1 [Compound 12] | 794 | 316 | 6.7 | 6.5 | > 10000 | 84 | 501 | – | –
6 | 398 | CC(C)c1ccc(COc2ccc(-c3c(-c4ccncc4)nn4c3C(=O)N(C)CC4)cc2)cc1 [Compound 48] | – | 31.6 | – | 7.1 | – | 155 | – | > 10000 | 63.1
7 | – | CC(C)c1ncc(COc2ccc(-c3c(-c4ccncc4)nn4c3C(=O)NCC4)cc2)cn1 [Compound 103] | 2000 | 1260 | – | 6.0 | > 10000 | 235 | 3980 | – | –
8 | – | COc1cc(-c2c(-c3ccnc(N)c3)nn3c2C(=O)N(C)CC3)ccc1OCc1ccc(C(C)C)cc1 [Compound 150] | 39.8 | 7.94 | 7.4 | 7.6 | > 10000 | – | 10 | – | –
9 | – | CC(C)c1ccc(COc2ccc(-c3c(-c4ccncc4F)nn4c3C(=O)NCC4)cc2)cc1 [Compound 151] | 63.1 | 31.6 | 7.1 | 7.4 | > 10000 | – | 20 | – | –
10 | 126 | CC(C)c1ccc(COc2ccc(-c3c(-c4ccncn4)nn4c3C(=O)N(CC3(C)COC3)CC4)cc2)cc1 [Compound 163] | – | 126 | 7.1 | 7.1 | – | – | – | > 10000 | 316
11 | 1580 | CC(C)c1ccc(COc2ccc(-c3c(-c4ccncc4)nn4c3CNCC4)cc2)cc1 [Compound 173] | – | 398 | – | 6.1 | – | 194 | – | > 10000 | 316
12 | 2000 | CC(C)c1ccc(COc2ccc(-c3c(-c4ccncc4)nn4c3CN(C(=O)CN(C)C)CC4)cc2)cc1 [Compound 181] | – | 794 | – | 5.7 | – | – | – | 5010 | 1260
13 | 794 | CC(C)c1ccc(COc2ccc(-c3c(-c4ccncc4)nn4c3CN(C)CC4)cc2)cc1 [Compound 185] | – | 126 | – | 6.3 | – | 120 | – | > 10000 | 158
14 | – | CC1Cn2nc(-c3ccncc3)c(-c3ccc(OCc4ccc(C5CC5)cc4)cc3)c2C(=O)N1 (stereo not shown) [Compound 189] | 200 | 31.6 | – | 7.1 | > 10000 | 249 | 39.8 | – | –
15 | – | CNCC1Cn2nc(-c3ccncc3)c(-c3ccc(OCc4ccc(C(C)C)cc4)cc3)c2C(=O)N1 (stereo not shown) [Compound 194] | 501 | 79.4 | 6.2 | 6.6 | 6310 | 230 | – | – | –
16 | 794 | CC(C)c1ccc(COc2ccc(-c3c(-c4ccncc4)nn4c3C(=O)NC(CN(C)CCO)C4)cc2)cc1 (stereo not shown) [Compound 195] | – | 126 | 7.0 | 6.7 | – | 193 | – | > 10000 | –
17 | – | CC(C)c1ccc(C2CCc3cc(-c4c(-c5ccncc5)nn5c4C(=O)NCC5)ccc3O2)cc1 (stereo not shown) [Compound 199] | 1260 | 200 | 7.5 | 7.1 | > 10000 | 262 | – | – | –
18 | 39.8 | CC(C)c1ccc(C2COc3cc(-c4c(-c5ccncc5)nn5c4C(=O)NCC5)ccc3O2)cc1 (stereo not shown) [Compound 201] | – | 25.1 | 7.4 | 7.8 | – | 290 | – | > 10000 | –
19 | – | O=C1c2c(-c3ccc(OCc4ccc(OC(F)(F)F)cc4)cc3F)c(-c3ccncc3)nn2CCN1CCO [Compound 206] | 100 | 39.8 | ~7.4 | 7.5 | > 10000 | 140 | – | – | –
20 | 251 | CC(C)c1ccc(COC2CCN(c3c(-c4ccncc4)nn4c3C(=O)N(C)CC4)CC2)cc1 [Compound 215] | – | 126 | 7.2 | 7.0 | – | 140 | – | > 10000 | –
21 | – | COc1cc(C(C)C)ccc1COc1ccc(-c2c(-c3ccncc3)nn3c2C(=O)NCC3)cc1 [Compound 216] | 631 | 63.1 | 6.9 | 7.3 | > 10000 | 200 | – | – | –
22 | 2000 | O=C1NCCCn2nc(-c3ccncc3)c(-c3ccc(OCc4ccc(C5CC5)cc4)cc3)c21 [Compound 228] | – | 398 | – | 6.3 | – | 235 | – | > 10000 | 501
23 | – | CC(C)c1ccc(COc2ccc(-c3c(-c4ccnc(CO)c4)nn4c3C(=O)NCC4)cc2)cc1 [Compound 233] | 2510 | 794 | 5.9 | 6.5 | > 10000 | 232 | – | – | –
